Measured values taken from patent publication US20240239786A1, “COMPOSITIONS AND METHODS FOR THE TREATMENT AND PREVENTION OF CANCER” (Yale University, priority 2021, published 2024).

Columns and labels:
[1] = test system: PEO4ip xenografts; assay: Survival of mice bearing peritoneal PEO4ip xenografts; format: in vivo, SCID-Beige mice; conditions: for effect on survival time of mice: olaparib 50 mg/kg, DB4 10 mg/kg, i.p. daily for 4 weeks
Description: SCID-Beige mice implanted ip with PEO4ip cells were treated daily (qd) with DB4 (10 mg/kg), olaparib (50 mg/kg), and the DB4-olaparib combination for 4 weeks. Kaplan Meier analysis was performed to determine the survival time of mice following treatments. Statistical significance was determined by the Mantel-Cox test comparing the control with each treatment group (N=4-5). […] DB4 given every two days (q2d) in the DB4-olaparib combination for 4 or 6 weeks (n=4-5). […] NOD CRISPR Prkdc Il2r Gamma (NCG) mice implanted sc with SKOV3 cells were treated as described in FIG. 10C for 4 weeks during which the tumor size was measured. Statistical significance was determined by the Wilcoxon matched-pairs signed test comparing the control with each treatment group and comparing between treatment groups. Data are means±SE (N=4-5). *, p<0.05; **, p<0.01.
First, the efficacy of the combination of DB4 and olaparib to treat PEO4ip tumor xenografts, as determined by the median survival time, was evaluated in a peritoneal mouse model (Lin Z P et al., 2018, PLOS One, 13:e0207399). Mice were implanted intraperitoneally (i.p.) with PEO4ip cells and then treated i.p. with olaparib, DB4, or both drugs in combination daily for 4 weeks. The survival endpoint (a 50% increase in abdominal circumference) for vehicle-treated control mice ranged from 55-65 days (8-9 weeks).
Next, these experiments were repeated with modified treatment schedules of DB4 given every two day (q2d) for 4-week and 6-week treatment periods.
Five to six weeks old female SCID-Beige mice were purchased from Envigo (Indianapolis, IN). PEO4ip cells (Lin Z P et al., 2018, PLOS One, 13:e0207399) suspended in 100 μL serum-free medium were implanted i.p. (1×10^7 cells per mouse). Six to eight weeks old female NCG (NOD-Prkdcem26Cd52Il2rgem26Cd22/NjuCrl) mice were purchased from Charles River (Wilmington, MA). SKOV3 cells suspended in 100 μL serum-free medium were mixed with 50 μL Matrigel (BD Biosciences) and implanted s.c. in the right dorsal medial area (1×10^7 cells per mouse). […] The abdominal circumference of PEO4ip-bearing mice reached a 50% increase about 50-70 days.
Mice were randomly assigned to treatment groups (n=4-5) and drug treatment was initiated 3-7 days after tumor implantation. The control group of mice received i.p. treatment with vehicle (2% DMSO) and treatment groups of mice received i.p. treatment for a period of 4 or 6 weeks as follows: Olaparib (50 mg/kg) once daily for 5 consecutive days per week; DB4 (10 mg/kg) once daily for 5 consecutive days (M, T, W, R, F) per week or once every 2 days (M, W, F) per week; The combined treatment with olaparib and DB4 at the dose and schedule described above.
The progression of PEO4ip tumor xenografts in mice was evaluated by measuring the size of the circumference at the lower one-third of the abdominal area with the mouse head positioned upward. A 50% increase in the abdominal circumference was defined as the endpoint of survival as described previously (Lin Z P et al., 2018, PLOS One, 13:e0207399). […] Kaplan-Meier survival curve, median survival time, and statistical analysis was performed using the Prism software (GraphPad). Comparisons were made by the Mantel-Cox test comparing the control with each treatment group. The growth of SKOV3 tumor xenografts was evaluated by the size of s.c. tumor using a digital caliper. Tumor volumes were calculated using the formula: length×width2/2. Statistical difference in the tumor size was determined by the Wilcoxon matched-pairs signed test comparing the control with each treatment group and comparing between treatment groups. Body weights of mice were measured on every treatment day before administration and on the same schedule as tumor measurements during the treatment period.

[2] = test system: Rad51 foci; assay: Nuclear Rad51 foci by confocal microscopy in SKOV3 cells; format: cell-based; conditions: for Rad51 foci, single agent: 30 μM DB4 or 25 μM olaparib
From the text: Cells were transfected with the ISceI-expressing plasmid and then treated various concentrations of DB4 for 48 hr. Cells were harvested, stained with 7-AAD, and analyzed by flow cytometry for GFP-positive cells indicative of HR repair activity. […] Cells were transfected with the ISceI-expressing plasmid and treated with various concentrations of DB4. Cells were harvested, stained with 7-AAD, and stained, and analyzed by flow cytometry for GFP-positive cells indicative of NHEJ activity. Data are means±SD (N=3). *, p<0.05; **, p<0.01, compared with the 0 μM control of ISceI-transected cells. FIG. 7C depicts representative results of confocal imaging of olaparib-induced nuclear Rad51 foci in SKOV3 cells treated DB4. Cells were treated with 30 μM DB4 for 1 hr and then treated with 25 μM olaparib or 6 hr. Cells were fixed, permeabilized, and stained with the anti-Rad51 antibody and the Alexa Fluor 488-conjugated secondary antibody. Nuclei were counterstained with DAPI. Immunofluorescence of Rad51 foci and nuclei were visualized by confocal microscopy. […] Cells were also scored for nuclei containing equal or more than 10 distinct Rad51 foci to determine the percentage of cells positive for Rad51 foci. Data are means±SD (N=10). p<0.001, compared between indicated treatment groups. […] Cells were pre-treated with 30 μM DB4 and then treated with 25 μM olaparib for 24 hr. Protein was assessed by western blot analysis for the levels of γH2AX, p-H1, cyclin A2, p-CDK1/2, and HSC70. Cropped gel images of protein bands are presented. Full-length gel images are shown in FIG. 15. p-H1, cyclin A2, p-CDK1/2, and HSC70 bands were from re-probing the same blot. The γH2AX band was from a duplicated blot. […] The band density of γH2AX indicative of DSBs was quantified by densitometry. […]
To interrogate whether DB4 inhibited PARP inhibitor-induced DSB repair, nuclear Rad51 foci were determined in SKOV3 cells. […]
SKOV3 cells were grown for 24 hr prior to drug treatment. […] Nuclei containing equal or more than 10 Rad51 foci were counted to determine % Rad51-positive cells.

[3] = test system: DNA synthesis; conditions: cited from earlier work
[4] = Table 2: olaparib 50 mg/kg qd, DB4 10 mg/kg qd, i.p., treated daily
[5] = Table 3: single agents, olaparib 50 mg/kg qd, DB4 10 mg/kg q2d

Row | SMILES | Median Survival Time [1, 4] | Median Survival Time [1, 5] | effect on survival time of mice [1] | olaparib-induced Rad51 foci ([2]; 30 μM DB4 1 hr then 25 μM olaparib) | Rad51 foci, single agent [2] | time to halt DNA synthesis [3]
1 | C=CCn1c(SCc2cccc(Cl)c2)nnc1C1CCN(Cc2nc3ccccc3s2)CC1 [DB4, 2-[(4-{4-allyl-5-[(3-chlorobenzyl)thio]-4H-1,2,4-triazol-3-yl}-1-piperidinyl)methyl]-1,3-benzothiazole] | 67 days | 56 days | no effects on the survival time of mice | significantly attenuated | had no effects on Rad51 foci | 
2 | O=C(c1cc(Cc2n[nH]c(=O)c3ccccc23)ccc1F)N1CCN(C(=O)C2CC2)CC1 [olaparib, reference compound] | 66 days | 55 days | no effects on the survival time of mice |  | induced a pronounced increase in Rad51 foci | 
3 | NC(=S)NN=Cc1ncccc1N [triapine, 3-aminopyridine-2-carboxaldehyde-thiosemicarbazone, reference compound] |  |  |  |  |  | ≤ 1 h
